Measurements as given in article PMC3235552, “Fragment library screening reveals remarkable similarities between the G protein-coupled receptor histamine H4 and the ion channel serotonin 5-HT3A” (Bioorganic & Medicinal Chemistry Letters, 2011).
Marks after values point to notes of the source that are not given here.

How the values were obtained:
human H4R [1] = target: T1, human H4R (Homo sapiens, UniProt Q9H3N8); experiment: H4R radioligand displacement of [3H]histamine, HEK293 membranes; type: binding; parameters: expressed in transfected cells; host or cells: HEK293T (main text: HEK293), transient transfection with polyethyleneimine; conditions: for Affinity (pKi) H4R: displacement of [3H]histamine, membranes of HEK293 cells transiently expressing human H4R, mean ± SEM, at least three measurements, n.a. = non active
Experimental: For the H4R fragment screen a radioligand displacement study was performed at a 10 μM fragment concentration. Hits were assigned when the fragment displaced 50% or more of the radioligand, resulting in 56 hits (hit rate: 6%). Radioligand binding was measured by displacement of [^3H]histamine using membranes of HEK293 cells transiently expressing the human H4R.[17] For the hit compounds, affinities were determined by subsequent radioligand displacement studies.
The H4R radioligand displacement screen was performed on homogenized HEK293T cells transiently expressing the human H4R. To this end, cells were transfected with 1.25 µg H4R plasmid per million cells using the 25-kDa linear polyethyleneimine. Two days after transfection, cells were collected, washed in PBS, and stored as pellets at -20 °C. Pellets were dissolved in binding buffer and homogenized using a teflon/glass followed by sonification for 3s. Cell homogenates were incubated in 96 well plates with 10µM (final) fragment and 10nM [^3H]-histamine (13.4 Ci/mmol, Perkin Elmer) and for 1.5 hours at room temperature on a table shaker (750rpm). Incubations were terminated by rapid filtration through polyethyleneimene-coated GF/C (Perkin Elmer) filter plates. Bound radioactivity was quantified in a Wallac microbeta counter (Perkin Elmer).

human 5-HT3AR = target: T2, human 5-HT3AR (Homo sapiens, UniProt P46098); experiment: 5-HT3AR radioligand displacement of [3H]granisetron, HEK293 membranes; type: binding; conditions: for Affinity (pKi) 5-HT3AR: displacement of [3H]granisetron, membranes of HEK293 cells expressing human 5-HT3AR, mean ± SEM, at least two measurements, n.a. = non active
T2 construct: transfected with the human 5-HT3A subunit (PDB ID: P46098) in pcDNA3.1; expressed in transfected cells; cDNA in pcDNA3.1
T2 sequence (P46098 24-478): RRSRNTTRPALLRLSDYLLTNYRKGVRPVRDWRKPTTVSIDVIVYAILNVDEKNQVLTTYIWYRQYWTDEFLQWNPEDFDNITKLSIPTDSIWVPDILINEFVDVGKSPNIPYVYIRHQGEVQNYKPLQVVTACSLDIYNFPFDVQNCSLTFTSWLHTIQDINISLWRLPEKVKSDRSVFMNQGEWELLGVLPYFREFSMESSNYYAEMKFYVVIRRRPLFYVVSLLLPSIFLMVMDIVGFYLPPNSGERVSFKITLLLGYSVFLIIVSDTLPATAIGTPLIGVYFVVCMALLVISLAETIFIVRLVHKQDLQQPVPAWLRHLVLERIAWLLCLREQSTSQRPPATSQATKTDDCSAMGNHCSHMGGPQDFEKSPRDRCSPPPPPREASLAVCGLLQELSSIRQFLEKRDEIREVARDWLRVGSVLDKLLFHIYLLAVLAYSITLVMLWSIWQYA
Experimental: For the 5-HT3AR we performed a high throughput functional fragment screen[18] using a fluorescent readout (Flex Station) applying a fluorescent membrane potential dye. […] From this fragment screening we identified 70 hits for the 5-HT3A receptor (hit rate: 7%). Fragments were screened at a concentration of 100 μM using stably expressed human 5-HT3AR in HEK293 cells. Binding affinities of hits were determined using radioligand binding studies measuring [^3H]granisetron binding using membranes of HEK293 cells expressing the human 5-HT3AR.[18]
5-HT3AR were expressed in HEK293 cells transfected with the human 5-HT3A subunit ([…]: P46098) in pcDNA3.1 (Invitrogen Ltd., Paisley, UK). Stably expressing cells were clonally selected with the addition of the G-418 (Sigma Aldrich Company ltd., Dorset, UK). Cells were routinely grown in 90 mm culture dishes containing Dubelco’s Modified Eagle’s Medium DMEM / Glutamax (Gibco, Invitrogen Ltd.) and passaged when 90% confluency was reached.
[picture] For radioligand binding HEK293 cells at 90% confluency were scraped into 1 ml of ice-cold HEPES buffer (10 mM, pH 7.4) and frozen. After thawing, they were washed with HEPES buffer and homogenised using a fine-bore syringe. 50 µl of cell membranes were incubated in 0.5 ml HEPES buffer containing 0.7 nM [^3H]granisetron (~ Kd) and differing concentrations of the test compound. Competition binding (8 point) was performed on at least three separate plates of transfected cells. Non-specific binding was determined using 1 mM quipazine. Reactions were incubated for at least 24 h at 4°C, to allow compounds with slow kinetics to equilibrate. Incubations were terminated by vacuum filtration using a Brandel cell harvester (Alpha Biotech Ltd., London, UK) onto GF/B filters pre-soaked in 0.3 % polyethyleneimine. Radioactivity was determined by scintillation counting using a Beckman BCLS6500 (Fullerton, California, USA). Data were fit according to the equation:
where L is the concentration of ligand present; BL is the binding in the presence of ligand concentration L; Bmin is the binding when L = 0; Bmax is the binding when L=∞, L50 is the concentration of L which gives a binding equal to (Bmax + Bmin)/2; and nH is the Hill coefficient. Ki values were estimated from IC50 values using the Cheng-Prusoff equation^5
where Ki is the equilibrium dissociation constant for binding of the unlabeled antagonist, IC50 is the concentration of antagonist that blocks half the specific binding, [L] is the free concentration of radioligand and Kd is the equilibrium dissociation constant of the radioligand.

human H4R [2] = target: T1, human H4R; experiment: H4R radioligand binding, membranes of SK-N-MC cells; parameters: expressed in transfected cells; conditions: membranes of SK-N-MC cells transiently expressing human H4R; mean ± SEM, at least three measurements
H4R = target: H4R; parameters: method as in PMID 18983139, PMID 19413570; conditions: Abbott H4R ligands; cited from earlier work

| Affinity (pKi) 5-HT3AR (human 5-HT3AR) | SMILES | Affinity (pKi) H4R (human H4R [1]) | also measured |
| --- | --- | --- | --- |
| 6.0 ± 0.0 | Nc1ccc2cc3ccccc3nc2c1 [compound 5] | – | – |
| 6.1 ± 0.1 | N=C(N)NCCCc1ccccc1 [compound 6] | – | – |
| 8.8 ± 0.1 | CN1CCC(=Cc2nc3cc(Cl)ccc3[nH]2)CC1 [compound 9] | – | selectivity for 5-HT3R over H4R (human 5-HT3AR; from affinities of Table 1): 500 fold; Affinity (pKi) H4R (human H4R [2]): 6.1 ± 0.1 ^b |
| 5.9 ± 0.1 | CN1CCN(c2cc(-c3ccccc3)nc(N)n2)CC1 [compound 10] | 8.2 ± 0.1 | selectivity for H4R over 5-HT3R (human H4R [1]; from affinities of Table 1): 200 fold |
| 5.9 ± 0.3 | c1nc(CC2CCCCC2)c[nH]1 [compound 11] | – | affinities for 5-HT3R and H4R compared (human 5-HT3AR; from affinities of Table 1): comparable affinities; Affinity (pKi) H4R (human H4R [2]): 6.2 ± 0.1 ^b |

Further lines, the compound ahead of its results:

| SMILES | Affinity (pKi) 5-HT3AR (human 5-HT3AR) | Affinity (pKi) H4R (human H4R [1]) | also measured |
| --- | --- | --- | --- |
| c1cncc(Cc2c[nH]cn2)c1 [compound 1] | – | 7.0 ± 0.1 | – |
| c1ccc(CNCCc2c[nH]cn2)cc1 [compound 2] | – | 6.2 ± 0.1 | – |
| CN1CCN(c2cc(-c3ccccc3)ncn2)CC1 [compound 3] | – | 6.7 ± 0.0 | – |
| Clc1ccc(C2CCNC2)cc1 (stereo not shown) [compound 4] | 6.1 ± 0.2 | – | – |
| CN1CCN(c2ccc3cc(Cl)ccc3n2)CC1 [compound 7] | 6.6 ± 0.3 | 6.2 ± 0.0 | affinities for 5-HT3R and H4R compared (human 5-HT3AR; from affinities of Table 1): comparable affinities |
| CN1CCN(c2nc3ccccc3nc2O)CC1 [compound 8] | 7.9 ± 0.3 | 7.2 ± 0.0 | affinities for 5-HT3R and H4R compared (human 5-HT3AR; from affinities of Table 1): comparable affinities |
| Nc1nc2c(c(N3CCNCC3)n1)CCCc1ccccc1-2 [compound 13] | – | – | H4R pKi (H4R): 7.1 |
